Source: the NIST ThermoML archive (doi:10.1016/j.jct.2015.09.028)

Experiment: xn = mol fraction of the nth substance listed
Settings: 93 kPa, Liquid; for viscosity: Concentric cylinders viscometry; for mass density: Vibrating tube method

c1ccc(Oc2ccccc2)cc1 [diphenyl ether] + c1ccc(-c2ccccc2)cc1
Settings	mass density, x1 = 0.55 [kg/m3]	mass density, x1 = 0.705 [kg/m3]	mass density, x1 = 0.85 [kg/m3]	mass density, x1 = 1 [kg/m3]	viscosity, x1 = 0.55 [mPa·s]	viscosity, x1 = 0.705 [mPa·s]	viscosity, x1 = 0.85 [mPa·s]	viscosity, x1 = 1 [mPa·s]
288.15 K	–	1066.7	–	–	–	5.12	–	–
293.15 K	–	1062.4	–	–	–	4.39	–	–
298.15 K	–	1058.2	1064.2	–	–	3.81	3.8	–
303.15 K	–	1053.9	1060	1065.5	–	3.34	3.34	3.33
308.15 K	1043.7	1049.7	1055.7	1061.2	2.99	2.96	2.96	2.96
313.15 K	1039.5	1045.4	1051.3	1056.9	2.7	2.64	2.65	2.65
323.15 K	1031.1	1037	1042.7	1048.2	2.15	2.15	2.16	2.17
333.15 K	1022.6	1028.5	1034.1	1039.6	1.79	1.79	1.81	1.82
343.15 K	1014.1	1020	1025.5	1030.9	1.52	1.52	1.54	1.54
353.15 K	1005.6	1011.5	1016.9	1022.3	1.31	1.31	1.32	1.33
363.15 K	997.5	1003	1008.3	1013.7	1.14	1.14	1.15	1.16
373.15 K	989.2	994.9	999.8	–	1	1.01	1.01	1.03
